Reference: ChEMBL document CHEMBL1123104, “Enzyme-activated irreversible inhibitors of monoamine oxidase: phenylallylamine structure-activity relationships” (J Med Chem, 1985)

Molecular target: T1, Monoamine oxidase (Rattus norvegicus, UniProt P19643+P21396)
T1 sequence (P19643 whole entry): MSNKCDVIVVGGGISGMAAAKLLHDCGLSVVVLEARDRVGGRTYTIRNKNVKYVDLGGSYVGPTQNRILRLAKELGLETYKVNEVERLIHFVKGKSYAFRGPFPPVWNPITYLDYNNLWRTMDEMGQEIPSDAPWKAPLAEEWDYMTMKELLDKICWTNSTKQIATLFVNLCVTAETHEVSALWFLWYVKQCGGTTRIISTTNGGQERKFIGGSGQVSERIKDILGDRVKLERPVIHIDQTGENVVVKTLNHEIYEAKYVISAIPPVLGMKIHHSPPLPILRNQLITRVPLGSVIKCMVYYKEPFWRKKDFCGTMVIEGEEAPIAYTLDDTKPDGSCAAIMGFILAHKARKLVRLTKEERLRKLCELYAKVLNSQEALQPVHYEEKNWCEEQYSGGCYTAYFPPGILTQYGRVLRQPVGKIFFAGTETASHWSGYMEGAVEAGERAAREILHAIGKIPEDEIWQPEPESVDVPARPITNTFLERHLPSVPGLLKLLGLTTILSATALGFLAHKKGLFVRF
T1 sequence (P21396 whole entry): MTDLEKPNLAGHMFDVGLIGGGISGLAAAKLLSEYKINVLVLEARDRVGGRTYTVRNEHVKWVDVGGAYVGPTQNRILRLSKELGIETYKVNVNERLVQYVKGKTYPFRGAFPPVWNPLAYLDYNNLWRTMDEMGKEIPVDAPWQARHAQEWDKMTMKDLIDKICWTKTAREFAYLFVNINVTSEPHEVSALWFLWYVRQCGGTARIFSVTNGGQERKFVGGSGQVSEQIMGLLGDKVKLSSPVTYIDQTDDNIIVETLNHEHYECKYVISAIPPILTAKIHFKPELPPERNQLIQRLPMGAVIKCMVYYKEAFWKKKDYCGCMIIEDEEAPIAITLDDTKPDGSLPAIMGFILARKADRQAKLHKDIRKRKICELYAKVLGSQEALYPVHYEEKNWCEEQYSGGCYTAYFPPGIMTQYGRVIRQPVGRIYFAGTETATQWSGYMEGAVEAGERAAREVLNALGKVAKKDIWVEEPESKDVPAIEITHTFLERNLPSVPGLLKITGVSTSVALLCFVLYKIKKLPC
Assay: Inhibitory activity against rat brain mitochondrial Monoamine oxidase

IC50 | SMILES
25 nM | COc1ccc(/C(=C\F)CN)cc1OC.Cl
25 nM | COc1ccccc1/C(=C\F)CN.Cl
50 nM | Cl.NC/C(=C/F)c1cccc(O)c1
500000 nM | Cl.NCC(=C(Br)Br)c1ccccc1
500000 nM | Cl.NC/C(=C\Cl)c1ccccc1
400000 nM | C=C(CN)c1ccccc1.Cl
150 nM | Cl.NC/C(=C\F)c1ccccc1
100 nM | Cl.NC/C(=C/F)c1ccc(O)c(O)c1
10 nM | Cc1ccc(/C(=C\F)CN)cc1.Cl

Continued, compound first:

SMILES | IC50
Cl.NC/C(=C/F)c1ccc(Cl)cc1 | 20 nM
Cl.NCC(=C(F)F)c1ccccc1 | 10000 nM
Cl.NC/C(=C/Cl)c1ccccc1 | 100000 nM
Cl.NC/C(=C/F)c1cccc(C(F)(F)F)c1 | 7 nM
Cl.NC/C(=C/F)c1ccccc1 | 18 nM
COc1cccc(/C(=C\F)CN)c1.Cl | 5 nM
Cl.NC/C(=C/Br)c1ccccc1 | 40000 nM
C=CCN [ALLYLAMINE] | 500000 nM
